Measured values published in patent publication US20070116825A1, “Confection with High-Potency Sweetener” (THE COCA-COLA COMPANY, priority 2005, published 2007).

What was measured:
[1] = Rate of dissolution in H2O at 25° C. of rebaudioside A polymorph and amorphous forms; type: physicochemical
Excerpt: The purification of rebaudioside A by crystallization as described above results in the formation of at least three different polymorphs: Form 1: a rebaudioside A hydrate; Form 2: an anhydrous rebaudioside A; Form 3: a rebaudioside A solvate. In addition to the at least three polymorph forms of rebaudioside A, the purification of rebaudioside A may result in the formation of an amorphous form of rebaudioside A, Form 4. The aqueous organic solution and temperature of the purification process influence the resulting polymorph and amorphous forms in the substantially pure rebaudioside A composition. FIGS. 1-5 are exemplary powder x-ray diffraction (XRPD) scans of the polymorph and amorphous forms of rebaudioside A: Form 1 (hydrate), Form 2 (anhydrate), Form 3A (methanol solvate), Form 3B (ethanol solvate), and Form 4 (amorphous), respectively.

[2] = type: physicochemical
Protocol: A solution of rebaudioside A (>97% pure by HPLC) was prepared in double distilled water (12.5 gm in 50 mL, 25% concentration) by stirring the mixture at 40° C. for 5 minutes. An amorphous form of rebaudioside A was formed by immediately using the clear solution for spray drying with the Lab-Plant spray drier SD-04 instrument (Lab-Plant Ltd., West Yorkshire, U.K.). The solution was fed through the feed pump into the nozzle atomizer which atomized it into a spray of droplets with the help of a constant flow of nitrogen/air. […] This dry powder (11-12 g, H2O 6.74%) was discharged continuously from the drying chamber and was collected in a bottle.

Substance | Rate of dissolution in H2O at 25° C. ([1]; per 60 minutes) | Rate of dissolution in H2O at 25° C. ([1]; per 5 minutes) | solubility in water at room temperature [2] [%]
rebaudioside A [Form 1] | Very low (<0.2%/ %/60 minutes | – | –
rebaudioside A [Form 2] | – | Intermediate (<30%/ %/5 minutes | –
rebaudioside A [Form 3] | – | High (>30%/5 %/5 minutes | –
rebaudioside A [Form 4] | – | High (>35%/5 %/5 minutes | > 35.0
